From ChEMBL document CHEMBL5465560, “Selectivity Literature for EUbOPEN Chemogenomic Library” (2024) come the findings set out here.

For assay [1], the target named is T1, Serine/threonine-protein kinase TAO2 (Homo sapiens) (UniProt Q9UL54).
T1 sequence (whole entry): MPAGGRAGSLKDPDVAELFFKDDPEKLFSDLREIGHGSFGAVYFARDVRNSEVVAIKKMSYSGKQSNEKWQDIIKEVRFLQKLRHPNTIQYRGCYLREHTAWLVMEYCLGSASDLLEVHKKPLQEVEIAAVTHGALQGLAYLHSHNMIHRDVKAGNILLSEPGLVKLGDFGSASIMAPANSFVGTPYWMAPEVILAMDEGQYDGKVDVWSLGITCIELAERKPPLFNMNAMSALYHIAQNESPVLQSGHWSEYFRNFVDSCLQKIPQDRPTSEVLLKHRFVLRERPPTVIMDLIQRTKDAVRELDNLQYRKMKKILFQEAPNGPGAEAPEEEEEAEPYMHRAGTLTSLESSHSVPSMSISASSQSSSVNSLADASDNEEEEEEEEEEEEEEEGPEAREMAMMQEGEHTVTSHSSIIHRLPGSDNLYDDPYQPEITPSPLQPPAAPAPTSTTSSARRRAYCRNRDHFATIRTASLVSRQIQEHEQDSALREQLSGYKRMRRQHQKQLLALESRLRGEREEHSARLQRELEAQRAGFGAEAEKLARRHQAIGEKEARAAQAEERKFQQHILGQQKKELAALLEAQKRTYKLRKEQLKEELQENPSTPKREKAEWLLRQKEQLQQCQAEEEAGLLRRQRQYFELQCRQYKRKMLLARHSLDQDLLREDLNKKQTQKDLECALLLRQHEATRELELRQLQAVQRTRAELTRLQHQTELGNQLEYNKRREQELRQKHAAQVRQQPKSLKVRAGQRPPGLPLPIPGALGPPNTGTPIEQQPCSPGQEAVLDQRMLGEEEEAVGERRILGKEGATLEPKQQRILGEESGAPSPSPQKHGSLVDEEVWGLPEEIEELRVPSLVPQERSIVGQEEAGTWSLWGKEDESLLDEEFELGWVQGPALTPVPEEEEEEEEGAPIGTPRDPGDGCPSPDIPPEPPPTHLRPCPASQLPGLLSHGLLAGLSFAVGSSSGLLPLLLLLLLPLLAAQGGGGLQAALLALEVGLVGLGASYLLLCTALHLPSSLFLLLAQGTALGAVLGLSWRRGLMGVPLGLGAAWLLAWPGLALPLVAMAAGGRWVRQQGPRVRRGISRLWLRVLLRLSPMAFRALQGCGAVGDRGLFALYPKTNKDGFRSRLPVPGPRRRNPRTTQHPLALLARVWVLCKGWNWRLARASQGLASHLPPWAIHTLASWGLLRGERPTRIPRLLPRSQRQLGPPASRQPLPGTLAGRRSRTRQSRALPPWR
The assay is described as follows: Selectivity interaction (ProQinase) EUB0000171b TAOK2.

In assay [2] the target is MAP kinase-activated protein kinase 2 (Homo sapiens, UniProt P49137). The assay is described as follows: Selectivity interaction (KinomeScan (DiscoverX)) EUB0000092b MAPKAPK2. To be noted: at 10 µM.
In assay [3] the target is T2, Serine/threonine-protein kinase TAO1 (Homo sapiens) (UniProt Q7L7X3).
T2 sequence (whole entry): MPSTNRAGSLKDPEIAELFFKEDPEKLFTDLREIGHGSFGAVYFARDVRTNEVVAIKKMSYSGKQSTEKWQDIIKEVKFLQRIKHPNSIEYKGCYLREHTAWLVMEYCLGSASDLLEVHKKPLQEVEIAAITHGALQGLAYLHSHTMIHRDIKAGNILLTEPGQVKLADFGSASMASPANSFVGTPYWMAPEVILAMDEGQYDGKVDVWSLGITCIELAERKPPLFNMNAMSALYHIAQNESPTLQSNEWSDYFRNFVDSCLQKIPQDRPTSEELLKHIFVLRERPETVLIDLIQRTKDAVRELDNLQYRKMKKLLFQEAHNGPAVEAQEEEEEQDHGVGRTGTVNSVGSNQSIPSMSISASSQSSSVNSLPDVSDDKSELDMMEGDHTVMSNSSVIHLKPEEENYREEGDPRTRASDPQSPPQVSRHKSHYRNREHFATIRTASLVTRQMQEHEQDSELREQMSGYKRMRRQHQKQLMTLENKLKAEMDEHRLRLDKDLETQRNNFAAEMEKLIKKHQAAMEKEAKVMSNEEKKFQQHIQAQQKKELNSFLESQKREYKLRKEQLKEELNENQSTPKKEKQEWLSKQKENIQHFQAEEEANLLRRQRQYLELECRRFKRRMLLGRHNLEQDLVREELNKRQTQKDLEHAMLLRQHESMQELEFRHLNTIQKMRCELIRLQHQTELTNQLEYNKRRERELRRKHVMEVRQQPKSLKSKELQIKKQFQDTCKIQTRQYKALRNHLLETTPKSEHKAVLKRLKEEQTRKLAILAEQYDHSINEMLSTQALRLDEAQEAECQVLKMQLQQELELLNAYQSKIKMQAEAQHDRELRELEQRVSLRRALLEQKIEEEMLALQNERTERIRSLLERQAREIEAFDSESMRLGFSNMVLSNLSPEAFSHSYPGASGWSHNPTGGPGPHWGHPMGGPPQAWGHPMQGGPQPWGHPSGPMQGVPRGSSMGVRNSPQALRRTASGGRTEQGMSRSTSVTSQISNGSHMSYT
Put plainly: Selectivity interaction (ActivX KiNativ screen (kinase selectivity in THP-1 cell lysates)) EUB0000639a TAOK1. The format is subcellular. The conditions noted are these: lysate.

Another assay deals with Aurora kinase B (Homo sapiens, UniProt Q96GD4). Put plainly: Selectivity interaction (ActivX KiNativ screen (kinase selectivity in THP-1 cell lysates)) EUB0000639a AURKB. In kind it is subcellular. To be noted: lysate, at 5 µM.
Sequence of Aurora kinase B (Q96GD4 whole entry): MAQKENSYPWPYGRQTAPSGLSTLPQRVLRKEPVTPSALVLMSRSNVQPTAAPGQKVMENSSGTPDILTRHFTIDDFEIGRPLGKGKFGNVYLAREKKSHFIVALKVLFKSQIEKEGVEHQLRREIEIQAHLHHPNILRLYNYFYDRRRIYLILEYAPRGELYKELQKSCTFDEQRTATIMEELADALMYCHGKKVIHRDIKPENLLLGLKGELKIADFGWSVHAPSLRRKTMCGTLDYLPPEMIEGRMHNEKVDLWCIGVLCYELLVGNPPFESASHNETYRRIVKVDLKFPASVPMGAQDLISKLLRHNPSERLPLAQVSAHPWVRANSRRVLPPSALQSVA

Sequence of MAP kinase-activated protein kinase 2 (P49137 whole entry, looked up): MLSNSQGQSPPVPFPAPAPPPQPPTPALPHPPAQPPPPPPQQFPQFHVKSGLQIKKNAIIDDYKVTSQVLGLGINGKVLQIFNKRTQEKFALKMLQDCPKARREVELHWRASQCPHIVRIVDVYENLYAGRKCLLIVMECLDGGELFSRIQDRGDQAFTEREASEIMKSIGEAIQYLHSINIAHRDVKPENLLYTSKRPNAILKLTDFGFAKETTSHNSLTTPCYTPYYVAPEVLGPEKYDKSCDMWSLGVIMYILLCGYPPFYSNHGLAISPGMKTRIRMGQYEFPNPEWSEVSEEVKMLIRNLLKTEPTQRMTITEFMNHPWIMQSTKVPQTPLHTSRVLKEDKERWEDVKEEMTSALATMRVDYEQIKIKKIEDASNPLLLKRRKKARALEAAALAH

As for `C=CC(=O)Nc1cccc(C(=O)Nc2ccc(Nc3cc(-c4[nH]c(SC)nc4C)ccn3)cc2)c1`, the % of control in assay [1] (at 1 µM) amounted to 38%; in assay [1] (at 5 µM) it was 16%.
With `CCC(=O)N1CCN(c2ccc(-n3c(=O)ccc4cnc5ccc(-c6cnc7ccccc7c6)cc5c43)cc2C(F)(F)F)CC1`, the % of control in assay [2] turned out to be 100%.
As to `CC[C@@H]1[C@H](F)C(=O)N[C@@H]1COc1nccc2cc(C(N)=O)c(OC)cc12` [ZIMLOVISERTIB], the % of inhibition in assay [3] (at 0.01 µM) was 6.6%; in assay [3] (at 0.04 µM) it was -1.6%; in assay [3] (at 0.2 µM), 6.9%; in assay [3] (at 1 µM) it was 12.9%; in assay [3] (at 5 µM) it was 41.7%; at Aurora kinase B, 64.4%.
